This note sets out measurements from patent US12486253B2, “Therapeutics for the degradation of mutant BRAF” (C4 THERAPEUTICS, INC., priority 2021, dated 2025).

The target in this assay is BRAF V600E (Homo sapiens, UniProt P15056, V600E). The experiment in a line: HiBiT cellular BRAF^V600E degradation assay. The format is cell-based. The note with it: A375.10 cells, 24 h; for DC50: concentration at which 50% of total cellular BRAF^V600E is degraded; for Emax: residual protein remaining in the cell, read-out: HiBit 24 h Emax. On the technique in general: HiBiT is a short tag that completes a luciferase, so light tracks the accessible tagged protein.
Sequence of BRAF V600E (P15056 whole entry V600E): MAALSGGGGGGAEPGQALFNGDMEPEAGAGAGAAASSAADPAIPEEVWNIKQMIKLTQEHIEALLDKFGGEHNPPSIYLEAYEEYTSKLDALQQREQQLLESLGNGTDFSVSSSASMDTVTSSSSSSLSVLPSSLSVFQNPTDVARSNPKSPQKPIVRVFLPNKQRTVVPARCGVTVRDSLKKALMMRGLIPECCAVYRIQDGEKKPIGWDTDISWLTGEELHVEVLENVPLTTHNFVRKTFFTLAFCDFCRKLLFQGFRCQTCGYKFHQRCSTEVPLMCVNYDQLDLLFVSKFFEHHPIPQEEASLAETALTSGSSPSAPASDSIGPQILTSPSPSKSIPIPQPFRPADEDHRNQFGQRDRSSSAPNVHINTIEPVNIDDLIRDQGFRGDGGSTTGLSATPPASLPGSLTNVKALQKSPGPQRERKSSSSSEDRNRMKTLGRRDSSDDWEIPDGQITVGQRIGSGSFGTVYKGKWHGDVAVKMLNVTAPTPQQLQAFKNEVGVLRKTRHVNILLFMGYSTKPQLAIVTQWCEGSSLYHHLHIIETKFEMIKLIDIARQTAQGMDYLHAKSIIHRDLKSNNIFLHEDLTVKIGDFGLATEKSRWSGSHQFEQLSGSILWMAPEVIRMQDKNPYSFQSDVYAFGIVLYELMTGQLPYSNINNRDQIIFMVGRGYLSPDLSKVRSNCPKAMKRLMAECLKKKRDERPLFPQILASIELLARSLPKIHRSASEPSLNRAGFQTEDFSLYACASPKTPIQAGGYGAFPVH

One may read the DC50 as the concentration giving 50% degradation. Broadly, the Emax is the size of the effect at its maximum, as opposed to the concentration needed. For the compound `CN(CC(F)F)S(=O)(=O)Nc1ccc(F)c(Oc2ccc3ncn(-c4cnc(N5CCN(C(=O)CN6CCC(c7ccc(N[C@@H]8CCC(=O)NC8=O)cc7F)CC6)CC5)nc4)c(=O)c3c2)c1C#N` [Example 119, 6-[2-cyano-3-[[2,2-difluoroethyl(methyl)sulfamoyl]amino]-6-fluorophenoxy]-3-[2-[4-[2-[4-[4-[[(3R)-2,6-dioxopiperidin-3-yl]amino]-2-fluorophenyl]piperidin-1-yl]acetyl]piperazin-1-yl]pyrimidin-5-yl]-4-oxoquinazoline], it took 46.9 nM to reach half-maximal degradation (DC50) and the Emax was 12.8%.
For `CN(CCF)S(=O)(=O)Nc1ccc(F)c(Oc2ccc3ncn(-c4cnc(N5CCN(C(=O)CN6CCC(c7ccc(N[C@@H]8CCC(=O)NC8=O)cc7F)CC6)CC5)nc4)c(=O)c3c2)c1C#N` [Example 120, 6-[2-cyano-6-fluoro-3-[[2-fluoroethyl(methyl)sulfamoyl]amino]phenoxy]-3-[2-[4-[2-[4-[4-[[(3R)-2,6-dioxopiperidin-3-yl]amino]-2-fluorophenyl]piperidin-1-yl]acetyl]piperazin-1-yl]pyrimidin-5-yl]-4-oxoquinazoline] the same measures were 13.8 nM and 11.6%.
On the same counts, the results for `CN(CCF)S(=O)(=O)Nc1ccc(F)c(Oc2ccc3ncn(-c4cnc(N5CCN(C(=O)CN6CCC(c7ccc(N[C@H]8CCC(=O)NC8=O)cc7F)CC6)CC5)nc4)c(=O)c3c2)c1C#N` [Example 121, 6-[2-cyano-6-fluoro-3-[[2-fluoroethyl(methyl)sulfamoyl]amino]phenoxy]-3-[2-[4-[2-[4-[4-[[(3S)-2,6-dioxopiperidin-3-yl]amino]-2-fluorophenyl]piperidin-1-yl]acetyl]piperazin-1-yl]pyrimidin-5-yl]-4-oxoquinazoline] are 14.6 nM and 7.8%.
For `CN(CC(F)F)S(=O)(=O)Nc1ccc(F)c(Oc2ccc3ncn(-c4cnc(N5CCN(C(=O)CN6CCC(c7ccc(N[C@H]8CCC(=O)NC8=O)cc7F)CC6)CC5)nc4)c(=O)c3c2)c1C#N` [Example 122, 6-[2-cyano-3-[[2,2-difluoroethyl(methyl)sulfamoyl]amino]-6-fluorophenoxy]-3-[2-[4-[2-[4-[4-[[(3S)-2,6-dioxopiperidin-3-yl]amino]-2-fluorophenyl]piperidin-1-yl]acetyl]piperazin-1-yl]pyrimidin-5-yl]-4-oxoquinazoline] the same measures were 27.1 nM and 8.26%.
For the compound `N#Cc1c(NS(=O)(=O)N2CCC(F)(F)C2)ccc(F)c1Oc1ccc2ncn(-c3cnc(N4CCN(C(=O)CN5CCC(c6ccc(N[C@@H]7CCC(=O)NC7=O)cc6F)CC5)CC4)nc3)c(=O)c2c1` [Example 123, N-[2-cyano-3-[3-[2-[4-[2-[4-[4-[[(3R)-2,6-dioxopiperidin-3-yl]amino]-2-fluorophenyl]piperidin-1-yl]acetyl]piperazin-1-yl]pyrimidin-5-yl]-4-oxoquinazolin-6-yl]oxy-4-fluorophenyl]-3,3-difluoropyrrolidine-1-sulfonamide], the DC50 came out at 50.7 nM and the maximal response (Emax) is 14%.
On the same counts, the results for `N#Cc1c(NS(=O)(=O)N2CC[C@@H](F)C2)ccc(F)c1Oc1ccc2ncn(-c3cnc(N4CCN(C(=O)CN5CCC(c6ccc(N[C@@H]7CCC(=O)NC7=O)cc6F)CC5)CC4)nc3)c(=O)c2c1` [Example 124, (3R)—N-[2-cyano-3-[3-[2-[4-[2-[4-[4-[[(3R)-2,6-dioxopiperidin-3-yl]amino]-2-fluorophenyl]piperidin-1-yl]acetyl]piperazin-1-yl]pyrimidin-5-yl]-4-oxoquinazolin-6-yl]oxy-4-fluorophenyl]-3-fluoropyrrolidine-1-sulfonamide] are 15.7 nM and 12%.
`N#Cc1c(NS(=O)(=O)N2CCC2)ccc(F)c1Oc1ccc2ncn(-c3cnc(N4CCN(C(=O)CN5CCC(c6ccc(N[C@@H]7CCC(=O)NC7=O)cc6F)CC5)CC4)nc3)c(=O)c2c1` [Example 125, N-[2-cyano-3-[3-[2-[4-[2-[4-[4-[[(3R)-2,6-dioxopiperidin-3-yl]amino]-2-fluorophenyl]piperidin-1-yl]acetyl]piperazin-1-yl]pyrimidin-5-yl]-4-oxoquinazolin-6-yl]oxy-4-fluorophenyl]azetidine-1-sulfonamide]: it took 15.7 nM to reach half-maximal degradation (DC50) and the Emax was found to be 12.6%.
On the same counts, the results for `CN(C1CC1)S(=O)(=O)Nc1ccc(F)c(Oc2ccc3ncn(-c4cnc(N5CCN(C(=O)CN6CCC(c7ccc(N[C@@H]8CCC(=O)NC8=O)cc7F)CC6)CC5)nc4)c(=O)c3c2)c1C#N` [Example 126, 6-[2-cyano-3-[[cyclopropyl(methyl)sulfamoyl]amino]-6-fluorophenoxy]-3-[2-[4-[2-[4-[4-[[(3R)-2,6-dioxopiperidin-3-yl]amino]-2-fluorophenyl]piperidin-1-yl]acetyl]piperazin-1-yl]pyrimidin-5-yl]-4-oxoquinazoline] are 22.2 nM and 13.7%.
For `CN(C1CC1)S(=O)(=O)Nc1ccc(F)c(Oc2ccc3ncn(-c4cnc(N5CCN(C(=O)CN6CCC(c7ccc(N[C@H]8CCC(=O)NC8=O)cc7F)CC6)CC5)nc4)c(=O)c3c2)c1C#N` [Example 127, 6-[2-cyano-3-[[cyclopropyl(methyl)sulfamoyl]amino]-6-fluorophenoxy]-3-[2-[4-[2-[4-[4-[[(3S)-2,6-dioxopiperidin-3-yl]amino]-2-fluorophenyl]piperidin-1-yl]acetyl]piperazin-1-yl]pyrimidin-5-yl]-4-oxoquinazoline] the same measures were 20.7 nM and 8.95%.
For `N#Cc1c(NS(=O)(=O)N2C[C@H]3C[C@H]3C2)ccc(F)c1Oc1ccc2ncn(-c3cnc(N4CCN(C(=O)CN5CCC(c6ccc(N[C@H]7CCC(=O)NC7=O)cc6F)CC5)CC4)nc3)c(=O)c2c1` [Example 128, (1S,5R)—N-[2-cyano-3-[3-[2-[4-[2-[4-[4-[[(3S)-2,6-dioxopiperidin-3-yl]amino]-2-fluorophenyl]piperidin-1-yl]acetyl]piperazin-1-yl]pyrimidin-5-yl]-4-oxoquinazolin-6-yl]oxy-4-fluorophenyl]-3-azabicyclo[3.1.0]hexane-3-sulfonamide] the same measures were 19.5 nM and 9.91%.
For the compound `N#Cc1c(NS(=O)(=O)N2C[C@@H](F)[C@H](F)C2)ccc(F)c1Oc1ccc2ncn(-c3cnc(N4CCN(C(=O)CN5CCC(c6ccc(N[C@H]7CCC(=O)NC7=O)cc6F)CC5)CC4)nc3)c(=O)c2c1` [Example 129, (3R,4R)—N-[2-cyano-3-[3-[2-[4-[2-[4-[4-[[(3S)-2,6-dioxopiperidin-3-yl]amino]-2-fluorophenyl]piperidin-1-yl]acetyl]piperazin-1-yl]pyrimidin-5-yl]-4-oxoquinazolin-6-yl]oxy-4-fluorophenyl]-3,4-difluoropyrrolidine-1-sulfonamide], half-maximal degradation (DC50) was put at 29.6 nM and the Emax stood at 10.3%.
On the same counts, the results for `N#Cc1c(NS(=O)(=O)N2CCC2)ccc(F)c1Oc1ccc2ncn(-c3cnc(N4CCN(C(=O)CN5CCC(c6ccc(N[C@H]7CCC(=O)NC7=O)cc6F)CC5)CC4)nc3)c(=O)c2c1` [Example 130, N-[2-cyano-3-[3-[2-[4-[2-[4-[4-[[(3S)-2,6-dioxopiperidin-3-yl]amino]-2-fluorophenyl]piperidin-1-yl]acetyl]piperazin-1-yl]pyrimidin-5-yl]-4-oxoquinazolin-6-yl]oxy-4-fluorophenyl]azetidine-1-sulfonamide] are 16.5 nM and 7.25%.
On the same counts, the results for `N#Cc1c(NS(=O)(=O)C2CCC2)ccc(F)c1Oc1ccc2ncn(-c3cnc(N4CCN(C(=O)CN5CCC(c6ccc(N[C@H]7CCC(=O)NC7=O)cc6F)CC5)CC4)nc3)c(=O)c2c1` [Example 132, N-[2-cyano-3-[3-[2-[4-[2-[4-[4-[[(3S)-2,6-dioxopiperidin-3-yl]amino]-2-fluorophenyl]piperidin-1-yl]acetyl]piperazin-1-yl]pyrimidin-5-yl]-4-oxoquinazolin-6-yl]oxy-4-fluorophenyl]cyclobutanesulfonamide] are 13.8 nM and 11.1%.
On the same counts, the results for `N#Cc1c(NS(=O)(=O)C2CCC2)ccc(F)c1Oc1ccc2ncn(-c3cnc(N4CCN(C(=O)CN5CCC(c6ccc(N[C@@H]7CCC(=O)NC7=O)cc6F)CC5)CC4)nc3)c(=O)c2c1` [Example 133, N-[2-cyano-3-[3-[2-[4-[2-[4-[4-[[(3R)-2,6-dioxopiperidin-3-yl]amino]-2-fluorophenyl]piperidin-1-yl]acetyl]piperazin-1-yl]pyrimidin-5-yl]-4-oxoquinazolin-6-yl]oxy-4-fluorophenyl]cyclobutanesulfonamide] are 27.2 nM and 8.2%.
On to `CCN(C)S(=O)(=O)Nc1ccc(F)c(Oc2ccc3ncn(-c4cnc(N5CCN(C(=O)CN6CCC(c7ccc(N[C@@H]8CCC(=O)NC8=O)cc7F)CC6)CC5)nc4)c(=O)c3c2COC)c1C#N` [Example 135, 6-[2-cyano-3-[[ethyl(methyl)sulfamoyl]amino]-6-fluorophenoxy]-3-[2-[4-[2-[4-[4-[[(3R)-2,6-dioxopiperidin-3-yl]amino]-2-fluorophenyl]piperidin-1-yl]acetyl]piperazin-1-yl]pyrimidin-5-yl]-5-(methoxymethyl)-4-oxoquinazoline], for which it took 31.4 nM to reach half-maximal degradation (DC50) and the Emax was determined as 13.7%.
For `CCN(C)S(=O)(=O)Nc1ccc(F)c(Oc2ccc3ncn(-c4cnc(N5CCN(C(=O)CN6CCC(c7ccc(N[C@H]8CCC(=O)NC8=O)cc7F)CC6)CC5)nc4)c(=O)c3c2O)c1C#N` [Example 136, 6-[2-cyano-3-[[ethyl(methyl)sulfamoyl]amino]-6-fluorophenoxy]-3-[2-[4-[2-[4-[4-[[(3S)-2,6-dioxopiperidin-3-yl]amino]-2-fluorophenyl]piperidin-1-yl]acetyl]piperazin-1-yl]pyrimidin-5-yl]-5-hydroxy-4-oxoquinazoline] the same measures were 16.3 nM and 16.9%.
